According to ChEMBL document CHEMBL6182931, “Chemical Evolution of Aplithianine Class of Serine/Threonine Kinase Inhibitors” (J Med Chem, 2025):
Active and inactive are the calls of the source. The rule behind the calls is not given here.

Key:
SR = test: Antiproliferative activity against human SR cells assessed as growth inhibition; assay type: functional
Albumin = Albumin (Homo sapiens, UniProt P02768); test: Binding affinity to human serum albumin assessed as protein binding at 10 uM by equilibrium dialysis technique relative to control; assay type: ADME; conditions: isolated protein
Sequence of Albumin (P02768 whole entry): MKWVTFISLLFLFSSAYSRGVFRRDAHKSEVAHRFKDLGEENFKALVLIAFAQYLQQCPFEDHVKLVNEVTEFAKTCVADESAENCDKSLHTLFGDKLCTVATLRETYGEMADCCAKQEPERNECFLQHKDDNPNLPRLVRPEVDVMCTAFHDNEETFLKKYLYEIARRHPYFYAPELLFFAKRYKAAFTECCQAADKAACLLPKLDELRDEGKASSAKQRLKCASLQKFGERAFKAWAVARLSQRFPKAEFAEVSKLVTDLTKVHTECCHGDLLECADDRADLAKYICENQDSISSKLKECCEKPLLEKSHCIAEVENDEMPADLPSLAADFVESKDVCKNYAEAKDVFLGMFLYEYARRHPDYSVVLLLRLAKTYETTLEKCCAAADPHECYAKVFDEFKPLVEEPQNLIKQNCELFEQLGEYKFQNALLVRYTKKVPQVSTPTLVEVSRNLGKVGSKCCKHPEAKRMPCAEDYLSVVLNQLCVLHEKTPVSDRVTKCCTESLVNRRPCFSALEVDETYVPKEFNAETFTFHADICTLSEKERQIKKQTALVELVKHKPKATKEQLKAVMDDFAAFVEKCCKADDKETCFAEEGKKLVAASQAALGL

[1] = Metabolic stability in human liver microsomes assessed as half-life at 0.1 uM measured after 60 mins; assay type: ADME, Microsome; conditions: 1 h
[2] = biological target: Tyrosine-protein kinase JAK2 (Homo sapiens) (UniProt O60674); test: Inhibition of human JAK2 at 50 nM in presence of ATP by radiometric Hotspot kinase assay relative to control
Sequence of Tyrosine-protein kinase JAK2 (Homo sapiens) (O60674 whole entry): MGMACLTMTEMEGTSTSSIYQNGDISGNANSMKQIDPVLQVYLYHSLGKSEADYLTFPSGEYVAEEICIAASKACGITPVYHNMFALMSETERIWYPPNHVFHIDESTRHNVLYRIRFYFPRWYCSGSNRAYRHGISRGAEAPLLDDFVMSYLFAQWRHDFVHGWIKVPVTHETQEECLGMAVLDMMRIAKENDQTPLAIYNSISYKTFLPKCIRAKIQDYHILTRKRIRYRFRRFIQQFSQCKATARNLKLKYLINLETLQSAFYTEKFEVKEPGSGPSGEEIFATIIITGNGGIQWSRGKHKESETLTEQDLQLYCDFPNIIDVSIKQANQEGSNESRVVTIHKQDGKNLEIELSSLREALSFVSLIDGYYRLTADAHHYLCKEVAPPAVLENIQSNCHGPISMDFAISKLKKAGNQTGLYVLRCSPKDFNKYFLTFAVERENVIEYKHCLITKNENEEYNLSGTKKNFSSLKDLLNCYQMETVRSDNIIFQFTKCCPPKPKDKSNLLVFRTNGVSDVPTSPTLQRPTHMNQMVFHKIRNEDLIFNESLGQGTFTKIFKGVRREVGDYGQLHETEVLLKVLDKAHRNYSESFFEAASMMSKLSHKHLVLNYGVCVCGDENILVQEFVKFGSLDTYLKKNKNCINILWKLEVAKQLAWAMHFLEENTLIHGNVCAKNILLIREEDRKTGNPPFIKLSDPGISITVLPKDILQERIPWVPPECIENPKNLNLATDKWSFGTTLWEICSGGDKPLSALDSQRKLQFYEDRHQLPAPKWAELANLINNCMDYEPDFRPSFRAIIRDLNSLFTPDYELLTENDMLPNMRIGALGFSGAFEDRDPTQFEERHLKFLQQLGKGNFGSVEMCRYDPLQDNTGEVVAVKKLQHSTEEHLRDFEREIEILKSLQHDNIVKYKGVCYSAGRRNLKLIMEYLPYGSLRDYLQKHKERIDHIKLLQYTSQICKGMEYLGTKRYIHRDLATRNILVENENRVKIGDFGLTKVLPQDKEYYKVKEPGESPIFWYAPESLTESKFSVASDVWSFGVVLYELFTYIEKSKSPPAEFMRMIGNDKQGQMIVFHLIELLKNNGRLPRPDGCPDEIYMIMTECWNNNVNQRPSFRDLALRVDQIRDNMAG

[3] = Inhibition of DNAJB1-PKAcalpha (unknown origin) overexpressed in mouse NIH/3T3 cells assessed as inhibition of CREB phosphorylation at Ser133 residue preincubated for 30 mins followed by forskolin addition and measured after 30 mins by fluorescence based multilabel reader analysis; assay type: cell-based; conditions: NIH3T3
[4] = biological target: T1, Dual specificity tyrosine-phosphorylation-regulated kinase 3 (Homo sapiens) (UniProt O43781); test: Inhibition of human DYRK3 at 50 nM in presence of ATP by radiometric Hotspot kinase assay relative to control
T1 sequence (whole entry): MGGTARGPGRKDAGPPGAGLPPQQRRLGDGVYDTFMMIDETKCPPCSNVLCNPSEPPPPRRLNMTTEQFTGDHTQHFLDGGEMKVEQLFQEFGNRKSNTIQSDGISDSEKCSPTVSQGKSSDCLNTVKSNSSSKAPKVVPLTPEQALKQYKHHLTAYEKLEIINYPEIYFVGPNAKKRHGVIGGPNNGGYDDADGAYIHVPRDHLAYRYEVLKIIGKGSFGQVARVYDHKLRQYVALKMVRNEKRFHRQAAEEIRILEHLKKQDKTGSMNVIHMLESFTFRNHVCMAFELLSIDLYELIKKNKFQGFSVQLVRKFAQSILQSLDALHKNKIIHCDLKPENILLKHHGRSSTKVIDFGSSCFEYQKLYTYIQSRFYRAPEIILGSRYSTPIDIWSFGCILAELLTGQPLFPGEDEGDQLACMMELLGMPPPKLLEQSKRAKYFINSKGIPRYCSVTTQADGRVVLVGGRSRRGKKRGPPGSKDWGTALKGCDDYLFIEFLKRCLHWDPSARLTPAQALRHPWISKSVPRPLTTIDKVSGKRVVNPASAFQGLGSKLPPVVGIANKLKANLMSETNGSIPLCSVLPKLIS

[5] = Metabolic stability in human liver microsomes assessed as intrinsic clearance at 0.1 uM measured after 60 mins; assay type: ADME, Microsome; conditions: 1 h
[6] = Inhibition of DNAJB1-PKAcalpha (unknown origin) using biotinylated-peptide substrate CREB incubated for 45 mins in presence of ATP and cAMP by ELISA; parameters: species or system Homo sapiens
OVCAR-4 = test: Antiproliferative activity against human OVCAR-4 cells assessed as growth inhibition; assay type: functional, cell-based
[7] = biological target: Tyrosine-protein kinase JAK1 (Homo sapiens) (UniProt P23458); test: Inhibition of human JAK1 at 50 nM in presence of ATP by radiometric Hotspot kinase assay relative to control
[8] = Drug metabolism in human liver microsomes at 0.1 uM measured after 60 mins; assay type: ADME, Microsome; conditions: 1 h
[9] = biological target: RAC-beta serine/threonine-protein kinase (Homo sapiens) (UniProt P31751); test: Inhibition of human Akt2 at 50 nM in presence of ATP by radiometric Hotspot kinase assay
Sequence of RAC-beta serine/threonine-protein kinase (Homo sapiens) (P31751 whole entry): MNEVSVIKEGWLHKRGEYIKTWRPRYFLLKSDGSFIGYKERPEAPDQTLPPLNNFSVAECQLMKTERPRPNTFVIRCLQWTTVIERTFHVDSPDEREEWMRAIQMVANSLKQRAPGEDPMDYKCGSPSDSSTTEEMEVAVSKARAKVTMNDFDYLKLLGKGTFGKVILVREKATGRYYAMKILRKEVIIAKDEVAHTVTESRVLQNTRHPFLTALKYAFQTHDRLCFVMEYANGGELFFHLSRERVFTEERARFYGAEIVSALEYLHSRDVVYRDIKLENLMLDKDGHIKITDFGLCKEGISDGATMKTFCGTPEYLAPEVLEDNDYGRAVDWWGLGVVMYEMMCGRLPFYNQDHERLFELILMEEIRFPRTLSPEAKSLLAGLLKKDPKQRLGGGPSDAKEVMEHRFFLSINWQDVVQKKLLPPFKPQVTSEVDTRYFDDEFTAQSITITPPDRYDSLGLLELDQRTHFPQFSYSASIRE

[10] = biological target: RAC-gamma serine/threonine-protein kinase (Homo sapiens) (UniProt Q9Y243); test: Inhibition of human Akt3 at 50 nM in presence of ATP by radiometric Hotspot kinase assay
LOX IMVI = test: Antiproliferative activity against human LOX IMVI cells assessed as growth inhibition; assay type: functional
[11] = Apparent permeability across basolateral to apical side in human Caco-2 cells at 10 uM; assay type: ADME, cell-based; conditions: caco-2, 10 µM
[12] = biological target: cAMP-dependent protein kinase catalytic subunit alpha (Homo sapiens) (UniProt P17612); conditions: dose 50.0 nM
Description: Inhibition of human PKAalpha at 50 nM in presence of ATP by radiometric Hotspot kinase assay relative to control

[13] = Apparent permeability across apical to basolateral side in human Caco-2 cells at 10 uM; assay type: ADME, cell-based; conditions: caco-2, 10 µM
[14] = biological target: RAC-alpha serine/threonine-protein kinase (Homo sapiens) (UniProt P31749); test: Inhibition of human Akt1 at 50 nM in presence of ATP by radiometric Hotspot kinase assay
Sequence of RAC-alpha serine/threonine-protein kinase (Homo sapiens) (P31749 whole entry): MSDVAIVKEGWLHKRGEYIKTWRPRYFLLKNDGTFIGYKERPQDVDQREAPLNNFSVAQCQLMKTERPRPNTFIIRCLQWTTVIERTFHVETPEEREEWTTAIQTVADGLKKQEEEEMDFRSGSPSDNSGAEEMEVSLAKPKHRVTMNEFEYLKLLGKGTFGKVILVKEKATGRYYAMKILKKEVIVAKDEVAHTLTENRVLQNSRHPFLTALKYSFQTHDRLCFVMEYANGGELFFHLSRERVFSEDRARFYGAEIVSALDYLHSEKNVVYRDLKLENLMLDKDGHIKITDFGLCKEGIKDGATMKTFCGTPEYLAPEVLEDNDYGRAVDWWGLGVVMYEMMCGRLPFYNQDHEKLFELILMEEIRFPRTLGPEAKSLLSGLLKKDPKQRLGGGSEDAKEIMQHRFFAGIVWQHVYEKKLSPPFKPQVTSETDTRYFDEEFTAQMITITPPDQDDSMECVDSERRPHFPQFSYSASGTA

[15] = biological target: cAMP-dependent protein kinase catalytic subunit beta (Homo sapiens) (UniProt P22694); test: Inhibition of human PKAbeta at 50 nM in presence of ATP by radiometric Hotspot kinase assay
[16] = biological target: NT-3 growth factor receptor (Homo sapiens) (UniProt Q16288); test: Inhibition of human TRKC at 50 nM in presence of ATP by radiometric Hotspot kinase assay relative to control
Sequence of NT-3 growth factor receptor (Homo sapiens) (Q16288 32-839 limits assumed): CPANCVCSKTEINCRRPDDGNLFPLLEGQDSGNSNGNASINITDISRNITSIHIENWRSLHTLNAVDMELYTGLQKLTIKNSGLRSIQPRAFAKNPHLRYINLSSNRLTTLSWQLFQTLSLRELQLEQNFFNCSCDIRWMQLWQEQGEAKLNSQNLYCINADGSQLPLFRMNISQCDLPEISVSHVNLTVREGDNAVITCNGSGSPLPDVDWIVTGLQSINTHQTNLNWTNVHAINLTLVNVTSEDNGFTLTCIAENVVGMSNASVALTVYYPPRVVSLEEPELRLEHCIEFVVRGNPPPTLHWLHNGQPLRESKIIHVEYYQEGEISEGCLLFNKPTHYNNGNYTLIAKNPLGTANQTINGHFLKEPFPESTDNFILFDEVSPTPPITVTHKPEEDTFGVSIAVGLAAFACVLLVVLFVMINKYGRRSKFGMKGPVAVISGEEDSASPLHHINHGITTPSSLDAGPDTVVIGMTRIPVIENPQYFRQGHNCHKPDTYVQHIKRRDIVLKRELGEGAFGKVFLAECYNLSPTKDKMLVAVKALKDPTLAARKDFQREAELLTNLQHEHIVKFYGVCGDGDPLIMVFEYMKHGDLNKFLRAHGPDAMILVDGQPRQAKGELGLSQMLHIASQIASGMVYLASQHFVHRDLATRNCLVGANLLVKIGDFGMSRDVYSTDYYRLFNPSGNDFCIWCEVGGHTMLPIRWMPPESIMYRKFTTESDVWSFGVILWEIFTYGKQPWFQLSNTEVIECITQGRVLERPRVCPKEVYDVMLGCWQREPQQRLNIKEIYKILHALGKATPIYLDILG

[17] = biological target: Tyrosine-protein kinase JAK3 (Homo sapiens) (UniProt P52333); test: Inhibition of human JAK3 at 50 nM in presence of ATP by radiometric Hotspot kinase assay relative to control
MOLT-4 = test: Antiproliferative activity against human MOLT-4 cells assessed as growth inhibition; assay type: functional
NCI/ADR-RES = test: Antiproliferative activity against human NCI/ADR-RES cells assessed as growth inhibition; assay type: functional, cell-based
MDA-MB-468 = test: Antiproliferative activity against human MDA-MB-468 cells assessed as growth inhibition; assay type: functional, cell-based
[18] = biological target: T2, Dual specificity tyrosine-phosphorylation-regulated kinase 2 (Homo sapiens) (UniProt Q92630); test: Inhibition of human DYRK2 at 50 nM in presence of ATP by radiometric Hotspot kinase assay relative to control
T2 sequence (whole entry): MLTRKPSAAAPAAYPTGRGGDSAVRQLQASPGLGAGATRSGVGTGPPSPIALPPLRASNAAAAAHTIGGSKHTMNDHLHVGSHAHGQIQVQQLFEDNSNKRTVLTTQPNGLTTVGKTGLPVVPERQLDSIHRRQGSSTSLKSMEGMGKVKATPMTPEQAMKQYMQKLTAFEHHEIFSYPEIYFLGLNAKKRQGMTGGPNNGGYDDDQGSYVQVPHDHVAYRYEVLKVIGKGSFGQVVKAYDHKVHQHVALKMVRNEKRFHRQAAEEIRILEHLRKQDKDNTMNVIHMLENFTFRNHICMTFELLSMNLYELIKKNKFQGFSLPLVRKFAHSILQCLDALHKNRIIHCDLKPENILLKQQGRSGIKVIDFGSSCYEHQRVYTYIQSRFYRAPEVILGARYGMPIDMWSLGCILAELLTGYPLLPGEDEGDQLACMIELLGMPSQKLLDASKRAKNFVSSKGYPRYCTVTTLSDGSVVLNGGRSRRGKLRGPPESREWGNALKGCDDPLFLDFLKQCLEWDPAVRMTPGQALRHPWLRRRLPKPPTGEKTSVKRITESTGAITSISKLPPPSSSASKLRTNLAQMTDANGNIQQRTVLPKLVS

[19] = Efflux ratio of apparent permeability across basolateral to apical side over apical to basolateral side in human Caco-2 cells at 10 uM; assay type: ADME, cell-based
[20] = Aqueous solubility of compound in PBS at pH 7.4 by shake-flask method; assay type: physicochemical
hERG (KCNH2) = hERG (KCNH2) (Homo sapiens, UniProt Q12809); test: Inhibition of human ERG expressed in CHO cells at 10 uM by electrophysiological analysis relative to control; assay type: toxicity, cell-based; conditions: CHO cells that express human ERG
Sequence of hERG (KCNH2) (Q12809 whole entry): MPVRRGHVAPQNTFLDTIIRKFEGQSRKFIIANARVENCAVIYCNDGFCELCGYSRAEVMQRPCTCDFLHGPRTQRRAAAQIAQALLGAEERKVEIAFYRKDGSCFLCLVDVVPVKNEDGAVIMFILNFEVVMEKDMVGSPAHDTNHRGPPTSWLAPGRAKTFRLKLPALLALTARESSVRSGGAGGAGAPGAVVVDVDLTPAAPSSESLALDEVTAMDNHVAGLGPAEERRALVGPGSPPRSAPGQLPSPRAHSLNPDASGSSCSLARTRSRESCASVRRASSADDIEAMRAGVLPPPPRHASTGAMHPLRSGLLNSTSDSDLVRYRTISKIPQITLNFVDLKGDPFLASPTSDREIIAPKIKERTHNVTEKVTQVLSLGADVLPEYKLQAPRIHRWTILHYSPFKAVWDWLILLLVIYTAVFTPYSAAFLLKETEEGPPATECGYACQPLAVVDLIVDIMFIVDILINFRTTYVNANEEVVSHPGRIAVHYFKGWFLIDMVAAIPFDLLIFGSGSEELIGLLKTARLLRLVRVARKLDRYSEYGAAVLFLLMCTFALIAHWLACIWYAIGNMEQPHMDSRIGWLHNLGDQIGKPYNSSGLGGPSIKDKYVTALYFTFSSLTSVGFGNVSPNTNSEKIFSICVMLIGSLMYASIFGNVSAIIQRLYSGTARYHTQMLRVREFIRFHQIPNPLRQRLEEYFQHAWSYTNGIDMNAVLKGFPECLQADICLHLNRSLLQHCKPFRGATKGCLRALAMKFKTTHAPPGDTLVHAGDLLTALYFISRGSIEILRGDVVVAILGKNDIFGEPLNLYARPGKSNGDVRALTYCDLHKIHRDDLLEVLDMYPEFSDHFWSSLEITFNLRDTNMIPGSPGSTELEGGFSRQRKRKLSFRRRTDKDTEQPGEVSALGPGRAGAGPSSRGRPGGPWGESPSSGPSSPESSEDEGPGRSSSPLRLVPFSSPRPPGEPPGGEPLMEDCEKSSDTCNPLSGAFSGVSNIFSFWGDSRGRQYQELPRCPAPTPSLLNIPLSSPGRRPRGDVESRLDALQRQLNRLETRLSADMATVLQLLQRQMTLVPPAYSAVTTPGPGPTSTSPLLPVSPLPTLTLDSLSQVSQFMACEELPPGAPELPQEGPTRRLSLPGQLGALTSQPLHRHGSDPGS

In the case of O=C(N[C@@H](c1ccccc1)[C@H]1CCCN1)C1=CN(c2ncnc3[nH]ccc23)CCS1, the Activity (SR) is reported as “Active”, the PB (Albumin) is reported as 84% and the t1/2 [1] is reported as greater than 60 min. For the same compound, the inhibition [2] was greater than 50%, the IC50 [3] was 660 nM and the inhibition [4] was “Active”. For the same compound, the CLH [5] was less than 115 µL/min/mg, the IC50 [6] was 6 nM and the Activity (OVCAR-4) was “inactive”. For the same compound, the inhibition [7] was greater than 50%, the Drug metabolism [8] was “metabolite_notdetected” and the inhibition [9] was “Active”. The inhibition [10] was “Active”, the GI50 (LOX IMVI) was 40 nM and the Papp [11] was 19.7 10^-6 cm/s. The inhibition [12] was “Active”, the Papp [13] was 0.3 10^-6 cm/s and the inhibition [14] was “Active”. For the same compound, the inhibition [15] was “Active”, the inhibition [16] was greater than 50% and the inhibition [17] was greater than 50%. For the same compound, the Activity (MOLT-4) was “Active”, the Activity (NCI/ADR-RES) was “inactive” and the Activity (MDA-MB-468) was “Active”. The inhibition [18] was “Active”, the efflux ratio at 10 µM [19] was 66 and the solubility thermodynamic [20] was greater than 200 µM. It also gave an inhibition at 10 µM (hERG (KCNH2)) of 33%.
